US7259167B2, “Antimalarial and antiproliferative pharmacophore models, novel tryptanthrin compounds having increased solubility, and methods of making and using thereof” (United States of America as Represented by the Secretary of …, priority 2002, dated 2007)

How the values were obtained:
[1] = Further solubility experiments (remaining in solution after dilution); assay type: physicochemical
Method: After determining that heterocycles and hydroxy or amine substituted aromatics dissolve tryptanthrin compounds, the following was conducted to determine if once dissolved the compounds would remain in solution in aqueous environments. To this end 10 mg of DN49 was dissolved in 1.0 ml of piperidine to obtain a green solution. This solution was then added dropwise to 2.0 ml of deionized water without precipitation of the compound. The solution was placed in a chemical fume hood so that the piperidine could evaporate slowly. After a week, the piperidine had evaporated and the resulting solution had no solid in the aqueous environment and had turned from the green color of the piperidne complex back to the yellow color of uncomplexed DN49 solutions.
A […] green stock solution of DN49 in 1-(3-aminopropyl)imidazole was formed. To 1.95 ml of a given solvent listed below, 50 microliter of the stock solution was added and the resulting solution was vortexed for a second to ensure rapid mixing; this provided a 5 mM solution. The results by solvent follow: • 1. Chloroform: Solution goes from green to yellow in less than 30 minutes; no solid after more than three months at ambient conditions. • 2. Methanol: Solution goes from green to yellow between 5 and 12 hours after mixing; no solid. • 3. 1,4-dioxane: Solution goes from green to yellow in approximately 1 hour; no solid. • 4. Deionized water: Solution goes from […] over the course of several days; no solid. • 5. Acetonitrile: Solution goes from green to yellow in about 3 hours; no solid. • 6.

[2] = Characteristics of DN49 dosing preparation; assay type: physicochemical; conditions: Hot DMSO and further diluted in PBS (1:10)
Method: (§1) DN49 was a yellow powder and dissolved completely in hot DMSO. The hot DMSO solution was then diluted 1:10 in PBS.

P. berghei P-line = experiment: Bioavailability and efficacy of DN49 in infected mice; assay type: in vivo
Method: On day 0, each mouse in groups 1 to 7 was inoculated intraperitoneally with 0.1 ml, 1.0×10^6 P. berghei P-line infected red blood cell from donor mice diluted in PBS.
as §1
On days 3 to 5, 0.2 ml of the three dosages at 2.5, 1.25, 0.625 mg/kg of DN49 were administered intravenously by a 29G, 0.5-inch needle (Groups 2 to 4). In addition, 0.2 ml of the three dosages at 30, 15, 7.5 mg/kg of DN49 were administered orally by a 20G, 2.5-inch needle (Groups 5 to 7). Drug administrations were performed once daily for 3 days. Group 1 served as vehicle control, and PBS was administered orally.

[3] = Hemin binding activity assay by 1H NMR (pseudocontact shifts); conditions: DMSO-d6
Method: (§2) As provided in Example 5, the hemin binding affinity for a series of tryptanthrin compounds with functional groups at the 8-position with different electron donating/withdrawing characteristics corresponding with the pharmacophore model of the present invention was determined by ^1H NMR. The binding interaction was measured as a function of the induced up-field shift in the chemical shift as a function of increasing hemin concentration. ^1H spectra of selected compounds each analog with an increasing concentration of hemin were collected and analyzed for the effect of the pseudocontact shifts.
It is well known that bio-molecules containing the paramagnetic species Fe^+3 induce via pseudocontact effect (a thru-space paramagnetic interaction, similar to the thru-space diopolar interaction or NOE) up-field chemical shifts of the ^1H, ^13C, ^15N atoms of bound ligands. See Serge Moreau et al. (1985) Biochemica et. Biophysica Acta 107-116; Alam, S. L., et al. (1998) J. Biomol. NMR 11:119-133; and Kalodimos, C. G., et al. (2000) J. Inorg. Biochem. 79:371-380, which are herein incorporated by reference. […] See Crowley, P. B., et al. (2001) J. Am. Chem. Soc. 123:10444-10453, which is herein incorporated by reference. Consequently, the closer a particular proton on the ligand is to the Fe^+3 atom, the greater the induced Δδ.
as §2, with “The” for “As provided in Example 5, the”, “using” for “by”, “of” for “of selected compounds”
To each sample, a 100 or 200 μl aliquot of a known concentration of hemin dissolved in 1.0 ml of DMSO-d6 was added. The concentrations of the tryptanthrin compounds compounds ranged from 3.0 to 8.0 mg per 500 μl of DMSO. A corresponding solution of hemin in DMSO was prepared to maintain a molar ratio of tryptanthrin compounds to hemin in the range of 1:1.0 to 1:1.5.
All ^1H NMR data was collected using a Bruker Avance-600 spectrometer using methods known in the art. See e.g. Wang, J., et al. (2001) J. Am. Chem. Soc. 123:8080-8088, which is herein incorporated by reference. The proton spectra were collected at 300 K, using a spectral width of 9090.9 Hz. All spectra were acquired with 64k data points in F2. All chemical shifts were referenced internally to TMS (0.00 ppm). The spectra were processed using XWINNMR (Bruker BioSpin Corporation, Billerica, Mass.) on a Silicon Graphics O2 workstation (Silicon Graphics, Mountain View, Calif.). Each data set was multiplied by a Gaussain window function with 0.3 Hz line broadening in each dimension before transformation.

Structure (SMILES): O=C1c2ccccc2-n2c1nc1ncccc1c2=O [DN49]
- solid in aqueous solution after evaporation of piperidine ([1]; 10 mg in 1.0 ml piperidine added to 2.0 ml deionized water, after a week): no solid
- solid formation from 5 mM solution ([1]; 50 microliter 200 mM stock in 1-(3-aminopropyl)imidazole into 1.95 ml Chloroform, more than three months at ambient conditions): no solid
- solid formation from 5 mM solution ([1]; stock in 1-(3-aminopropyl)imidazole into 0.1 M aqueous citric acid): green solid fall out of solution after about 12 hours
- solid formation from 5 mM solution ([1]; stock in 1-(3-aminopropyl)imidazole into 1,4-dioxane): no solid
- solid formation from 5 mM solution ([1]; stock in 1-(3-aminopropyl)imidazole into 10% aqueous sodium bicarbonate): green precipitate after 8 hours
- solid formation from 5 mM solution ([1]; stock in 1-(3-aminopropyl)imidazole into Acetonitrile): no solid
- solid formation from 5 mM solution ([1]; stock in 1-(3-aminopropyl)imidazole into Deionized water): no solid
- solid formation from 5 mM solution ([1]; stock in 1-(3-aminopropyl)imidazole into Methanol): no solid
- solubility [2]: Partial
- extension of life of mice (P. berghei P-line; 2.5 mg/kg intravenously once daily at study days 3 to 5): 2 days
- extension of life of mice (P. berghei P-line; 30 mg/kg orally once daily at study days 3 to 5): 2 days
- mean parasitemia on day 6 (P. berghei P-line; Group 2, 2.5 mg/kg intravenously once daily days 3 to 5): 54.75%
- mean parasitemia on day 6 (P. berghei P-line; Group 3, 1.25 mg/kg intravenously once daily days 3 to 5): 55.75%
- mean parasitemia on day 6 (P. berghei P-line; Group 4, 0.625 mg/kg intravenously once daily days 3 to 5): 61.18%
- mean parasitemia on day 6 (P. berghei P-line; Group 5, 30 mg/kg orally once daily days 3 to 5): 56.11%
- mean parasitemia on day 6 (P. berghei P-line; Group 6, 15 mg/kg orally once daily days 3 to 5): 54.26%
- mean parasitemia on day 6 (P. berghei P-line; Group 7, 7.5 mg/kg orally once daily days 3 to 5): 64.23%
- acute toxicity or other deaths prior to day 6 (P. berghei P-line; IV 0.625-2.5 mg/kg, oral 7.5-30 mg/kg): no acute toxicity
- Toxic effects (P. berghei P-line; at the dosages given (up to 2.5 mg/kg IV, 30 mg/kg oral)): not observed
- activity at lower dosages (P. berghei P-line; dosages below 2.5 mg/kg intravenously or 30 mg/kg orally): no significant activity
- Maximum induced Δδ ([3]; hemin induced pseudocontact chemical shift): 0.558 ppm
- Concentration dependence Δδ ([3]; slope of Δδ v. hemin concentration): 0.09778 ppm/mole %
